# In patent US8192962B2, “Processes for detecting toxic substances” (Daikin Industries, Ltd., priority 2001, dated 2012):
# Tested on: Stress protein genes
# Test: DNA chip mRNA expression in yeast, stress protein genes (Table 6)
# Format: cell-based, Saccharomyces cerevisiae S288C
# Outline: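 First, S288C yeast grown in YPD at 25° C. are dosed in log phase with one toxicant (growth-inhibiting, not lethal) for 2 h. Next, total RNA is extracted and poly(A) mRNA isolated and reverse-transcribed with Cy3/Cy5-dUTP. Finally, whole-genome chip fluorescence is read relative to unexposed cells.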
structure (smiles),measurement,setting,value
"[Cl][Cd][Cl] [(2), CdCl2]",The level of expressed mRNA in the presence of chemical substance/The level of expressed mRNA in the absence of chemical substance,yeast gene YAL005C,1.6
same,The level of expressed mRNA in the presence of chemical substance/The level of expressed mRNA in the absence of chemical substance,yeast gene YAL015C,1.1
same,The level of expressed mRNA in the presence of chemical substance/The level of expressed mRNA in the absence of chemical substance,yeast gene YBL075C,4.3
same,The level of expressed mRNA in the presence of chemical substance/The level of expressed mRNA in the absence of chemical substance,yeast gene YBL093C,2.0
same,The level of expressed mRNA in the presence of chemical substance/The level of expressed mRNA in the absence of chemical substance,yeast gene YBR044C,1.4
same,The level of expressed mRNA in the presence of chemical substance/The level of expressed mRNA in the absence of chemical substance,yeast gene YBR054W,1.8
same,The level of expressed mRNA in the presence of chemical substance/The level of expressed mRNA in the absence of chemical substance,yeast gene YBR067C,2.5
same,The level of expressed mRNA in the presence of chemical substance/The level of expressed mRNA in the absence of chemical substance,yeast gene YBR072W,17.4
same,The level of expressed mRNA in the presence of chemical substance/The level of expressed mRNA in the absence of chemical substance,yeast gene YBR126C,1.9
same,The level of expressed mRNA in the presence of chemical substance/The level of expressed mRNA in the absence of chemical substance,yeast gene YBR169C,2.1
same,The level of expressed mRNA in the presence of chemical substance/The level of expressed mRNA in the absence of chemical substance,yeast gene YCL035C,2.3
same,The level of expressed mRNA in the presence of chemical substance/The level of expressed mRNA in the absence of chemical substance,yeast gene YCR021C,1.4
same,The level of expressed mRNA in the presence of chemical substance/The level of expressed mRNA in the absence of chemical substance,yeast gene YCR060W,0.7
same,The level of expressed mRNA in the presence of chemical substance/The level of expressed mRNA in the absence of chemical substance,yeast gene YCR083W,2.8
same,The level of expressed mRNA in the presence of chemical substance/The level of expressed mRNA in the absence of chemical substance,yeast gene YDL022W,2.6
same,The level of expressed mRNA in the presence of chemical substance/The level of expressed mRNA in the absence of chemical substance,yeast gene YDL025C,5.0
same,The level of expressed mRNA in the presence of chemical substance/The level of expressed mRNA in the absence of chemical substance,yeast gene YDR033W,1.3
same,The level of expressed mRNA in the presence of chemical substance/The level of expressed mRNA in the absence of chemical substance,yeast gene YDR077W,1.0
same,The level of expressed mRNA in the presence of chemical substance/The level of expressed mRNA in the absence of chemical substance,yeast gene YDR098C,1.4
same,The level of expressed mRNA in the presence of chemical substance/The level of expressed mRNA in the absence of chemical substance,yeast gene YDR155C,1.5
same,The level of expressed mRNA in the presence of chemical substance/The level of expressed mRNA in the absence of chemical substance,yeast gene YDR258C,2.3
same,The level of expressed mRNA in the presence of chemical substance/The level of expressed mRNA in the absence of chemical substance,yeast gene YDR293C,0.9
same,The level of expressed mRNA in the presence of chemical substance/The level of expressed mRNA in the absence of chemical substance,yeast gene YDR436W,0.9
same,The level of expressed mRNA in the presence of chemical substance/The level of expressed mRNA in the absence of chemical substance,yeast gene YDR513W,2.5
same,The level of expressed mRNA in the presence of chemical substance/The level of expressed mRNA in the absence of chemical substance,yeast gene YDR519W,3.2
same,The level of expressed mRNA in the presence of chemical substance/The level of expressed mRNA in the absence of chemical substance,yeast gene YEL030W,0.9
same,The level of expressed mRNA in the presence of chemical substance/The level of expressed mRNA in the absence of chemical substance,yeast gene YEL039C,0.7
same,The level of expressed mRNA in the presence of chemical substance/The level of expressed mRNA in the absence of chemical substance,yeast gene YER042W,2.2
same,The level of expressed mRNA in the presence of chemical substance/The level of expressed mRNA in the absence of chemical substance,yeast gene YER057C,2.0
same,The level of expressed mRNA in the presence of chemical substance/The level of expressed mRNA in the absence of chemical substance,yeast gene YER103W,2.1
same,The level of expressed mRNA in the presence of chemical substance/The level of expressed mRNA in the absence of chemical substance,yeast gene YER125W,1.1
same,The level of expressed mRNA in the presence of chemical substance/The level of expressed mRNA in the absence of chemical substance,yeast gene YFL014W,5.1
same,The level of expressed mRNA in the presence of chemical substance/The level of expressed mRNA in the absence of chemical substance,yeast gene YFL016C,1.0
same,The level of expressed mRNA in the presence of chemical substance/The level of expressed mRNA in the absence of chemical substance,yeast gene YFL020C,1.1
same,The level of expressed mRNA in the presence of chemical substance/The level of expressed mRNA in the absence of chemical substance,yeast gene YFR052W,1.6
same,The level of expressed mRNA in the presence of chemical substance/The level of expressed mRNA in the absence of chemical substance,yeast gene YGL073W,2.1
same,The level of expressed mRNA in the presence of chemical substance/The level of expressed mRNA in the absence of chemical substance,yeast gene YGL115W,0.6
same,The level of expressed mRNA in the presence of chemical substance/The level of expressed mRNA in the absence of chemical substance,yeast gene YGL181W,0.9
same,The level of expressed mRNA in the presence of chemical substance/The level of expressed mRNA in the absence of chemical substance,yeast gene YGR088W,1.2
same,The level of expressed mRNA in the presence of chemical substance/The level of expressed mRNA in the absence of chemical substance,yeast gene YHL028W,0.8
same,The level of expressed mRNA in the presence of chemical substance/The level of expressed mRNA in the absence of chemical substance,yeast gene YHL046C,1.7
same,The level of expressed mRNA in the presence of chemical substance/The level of expressed mRNA in the absence of chemical substance,yeast gene YHR030C,0.8
same,The level of expressed mRNA in the presence of chemical substance/The level of expressed mRNA in the absence of chemical substance,yeast gene YHR057C,1.2
same,The level of expressed mRNA in the presence of chemical substance/The level of expressed mRNA in the absence of chemical substance,yeast gene YHR104W,4.1
same,The level of expressed mRNA in the presence of chemical substance/The level of expressed mRNA in the absence of chemical substance,yeast gene YIL011W,0.5
same,The level of expressed mRNA in the presence of chemical substance/The level of expressed mRNA in the absence of chemical substance,yeast gene YIL033C,1.3
same,The level of expressed mRNA in the presence of chemical substance/The level of expressed mRNA in the absence of chemical substance,yeast gene YIR037W,2.2
same,The level of expressed mRNA in the presence of chemical substance/The level of expressed mRNA in the absence of chemical substance,yeast gene YIR038C,3.5
same,The level of expressed mRNA in the presence of chemical substance/The level of expressed mRNA in the absence of chemical substance,yeast gene YJL128C,1.4
same,The level of expressed mRNA in the presence of chemical substance/The level of expressed mRNA in the absence of chemical substance,yeast gene YJL158C,0.6
same,The level of expressed mRNA in the presence of chemical substance/The level of expressed mRNA in the absence of chemical substance,yeast gene YJL159W,1.3
same,The level of expressed mRNA in the presence of chemical substance/The level of expressed mRNA in the absence of chemical substance,yeast gene YJL165C,0.8
same,The level of expressed mRNA in the presence of chemical substance/The level of expressed mRNA in the absence of chemical substance,yeast gene YJR045C,1.9
same,The level of expressed mRNA in the presence of chemical substance/The level of expressed mRNA in the absence of chemical substance,yeast gene YJR090C,1.0
same,The level of expressed mRNA in the presence of chemical substance/The level of expressed mRNA in the absence of chemical substance,yeast gene YKL161C,0.8
same,The level of expressed mRNA in the presence of chemical substance/The level of expressed mRNA in the absence of chemical substance,yeast gene YKL163W,1.4
same,The level of expressed mRNA in the presence of chemical substance/The level of expressed mRNA in the absence of chemical substance,yeast gene YKL164C,1.1
same,The level of expressed mRNA in the presence of chemical substance/The level of expressed mRNA in the absence of chemical substance,yeast gene YKL210W,1.7
same,The level of expressed mRNA in the presence of chemical substance/The level of expressed mRNA in the absence of chemical substance,yeast gene YKR053C,2.0
same,The level of expressed mRNA in the presence of chemical substance/The level of expressed mRNA in the absence of chemical substance,yeast gene YLL024C,1.6
same,The level of expressed mRNA in the presence of chemical substance/The level of expressed mRNA in the absence of chemical substance,yeast gene YLL026W,2.9
same,The level of expressed mRNA in the presence of chemical substance/The level of expressed mRNA in the absence of chemical substance,yeast gene YLL039C,1.0
same,The level of expressed mRNA in the presence of chemical substance/The level of expressed mRNA in the absence of chemical substance,yeast gene YLL060C,4.2
same,The level of expressed mRNA in the presence of chemical substance/The level of expressed mRNA in the absence of chemical substance,yeast gene YLR006C,0.7
same,The level of expressed mRNA in the presence of chemical substance/The level of expressed mRNA in the absence of chemical substance,yeast gene YLR109W,2.9
same,The level of expressed mRNA in the presence of chemical substance/The level of expressed mRNA in the absence of chemical substance,yeast gene YLR259C,1.0
same,The level of expressed mRNA in the presence of chemical substance/The level of expressed mRNA in the absence of chemical substance,yeast gene YML007W,0.8
same,The level of expressed mRNA in the presence of chemical substance/The level of expressed mRNA in the absence of chemical substance,yeast gene YML070W,1.7
same,The level of expressed mRNA in the presence of chemical substance/The level of expressed mRNA in the absence of chemical substance,yeast gene YMR021C,0.7
same,The level of expressed mRNA in the presence of chemical substance/The level of expressed mRNA in the absence of chemical substance,yeast gene YMR173W,3.6
same,The level of expressed mRNA in the presence of chemical substance/The level of expressed mRNA in the absence of chemical substance,yeast gene YMR186W,1.4
same,The level of expressed mRNA in the presence of chemical substance/The level of expressed mRNA in the absence of chemical substance,yeast gene YNL064C,1.8
same,The level of expressed mRNA in the presence of chemical substance/The level of expressed mRNA in the absence of chemical substance,yeast gene YNL160W,3.7
same,The level of expressed mRNA in the presence of chemical substance/The level of expressed mRNA in the absence of chemical substance,yeast gene YNL241C,2.5
same,The level of expressed mRNA in the presence of chemical substance/The level of expressed mRNA in the absence of chemical substance,yeast gene YNR076W,1.3
same,The level of expressed mRNA in the presence of chemical substance/The level of expressed mRNA in the absence of chemical substance,yeast gene YOL064C,2.1
same,The level of expressed mRNA in the presence of chemical substance/The level of expressed mRNA in the absence of chemical substance,yeast gene YOL161C,1.1
same,The level of expressed mRNA in the presence of chemical substance/The level of expressed mRNA in the absence of chemical substance,yeast gene YOR008C,0.8
same,The level of expressed mRNA in the presence of chemical substance/The level of expressed mRNA in the absence of chemical substance,yeast gene YOR009W,0.8
same,The level of expressed mRNA in the presence of chemical substance/The level of expressed mRNA in the absence of chemical substance,yeast gene YOR010C,0.7
same,The level of expressed mRNA in the presence of chemical substance/The level of expressed mRNA in the absence of chemical substance,yeast gene YOR027W,2.4
same,The level of expressed mRNA in the presence of chemical substance/The level of expressed mRNA in the absence of chemical substance,yeast gene YOR208W,1.0
same,The level of expressed mRNA in the presence of chemical substance/The level of expressed mRNA in the absence of chemical substance,yeast gene YPL059W,0.9
same,The level of expressed mRNA in the presence of chemical substance/The level of expressed mRNA in the absence of chemical substance,yeast gene YPL106C,1.7
same,The level of expressed mRNA in the presence of chemical substance/The level of expressed mRNA in the absence of chemical substance,yeast gene YPL140C,1.3
same,The level of expressed mRNA in the presence of chemical substance/The level of expressed mRNA in the absence of chemical substance,yeast gene YPL194W,1.4
same,The level of expressed mRNA in the presence of chemical substance/The level of expressed mRNA in the absence of chemical substance,yeast gene YPL223C,20.0
same,The level of expressed mRNA in the presence of chemical substance/The level of expressed mRNA in the absence of chemical substance,yeast gene YPL240C,1.4
same,The level of expressed mRNA in the presence of chemical substance/The level of expressed mRNA in the absence of chemical substance,yeast gene YPR005C,0.8
same,The level of expressed mRNA in the presence of chemical substance/The level of expressed mRNA in the absence of chemical substance,yeast gene YPR026W,1.2
